Results from ChEMBL document CHEMBL1201862, “PubChem BioAssay data set” (2004).
One block for each molecule: values may come before it. Active and inactive are the calls of the source.

Tests used:
[1] = target: T1, Rac GTPase-activating protein 1 (Homo sapiens, UniProt Q9H0H5); assay: MgcRacGAP GTPase-activating activity inhibitors, confirmation, biochemical, ADP Hunter fluorescence, primary and confirmatory (AID 624330); type: functional
T1 sequence (Q9H0H5 whole entry): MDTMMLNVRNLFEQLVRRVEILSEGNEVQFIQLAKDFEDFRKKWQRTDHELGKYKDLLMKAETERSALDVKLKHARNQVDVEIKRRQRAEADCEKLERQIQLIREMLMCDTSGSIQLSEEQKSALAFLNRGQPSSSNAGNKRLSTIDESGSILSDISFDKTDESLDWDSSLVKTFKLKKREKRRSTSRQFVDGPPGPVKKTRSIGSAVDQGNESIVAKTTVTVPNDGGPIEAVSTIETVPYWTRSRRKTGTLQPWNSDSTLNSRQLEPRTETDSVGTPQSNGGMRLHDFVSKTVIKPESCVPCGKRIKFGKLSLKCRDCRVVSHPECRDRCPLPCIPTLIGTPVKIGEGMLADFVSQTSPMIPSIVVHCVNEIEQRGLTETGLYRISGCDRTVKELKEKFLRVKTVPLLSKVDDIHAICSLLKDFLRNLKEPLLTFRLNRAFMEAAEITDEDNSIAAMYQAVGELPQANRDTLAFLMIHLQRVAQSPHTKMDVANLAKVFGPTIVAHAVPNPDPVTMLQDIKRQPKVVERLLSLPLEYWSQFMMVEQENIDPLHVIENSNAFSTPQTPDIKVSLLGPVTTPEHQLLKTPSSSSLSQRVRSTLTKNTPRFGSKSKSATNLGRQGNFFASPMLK

[2] = target: Mitogen-activated protein kinase 10 (Homo sapiens, UniProt P53779); assay: Dose response biochemical screening assay for inhibitors of c-Jun N-Terminal Kinase 3 (JNK3). [Related pubchem assays: 746 ]
[3] = Fluorescence-based cell-based high throughput dose response assay for inhibitors of the interaction of nucleotide-binding oligomerization domain containing 2 (NOD2) and the receptor-interacting serine-threonine kinase 2 (RIPK2).; type: functional; settings: Homo sapiens
Large T antigen = Large T antigen (Simian virus 40, UniProt P03070); type: functional, Betapolyomavirus macacae;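 also: Confirmatory-stage PubChem screen for compounds that inhibit SV40 T antigen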
Beta Lactamase = Beta Lactamase (Pseudomonas aeruginosa, UniProt Q932Y6); assay: beta-lactamase reporter inhibitor potency, dose response, artefact control for NOD2-RIPK2 interaction inhibitor project, BLA reporter cells, FRET fluorescence (AID 651552); type: functional, cell-based
[4] = target: T2, Voltage-gated N-type calcium channel alpha-1B subunit/Amyloid beta A4 precursor protein-binding family A member 1 (Homo sapiens, UniProt Q00975+Q02410); type: protein assay
T2 sequence (Q00975 whole entry): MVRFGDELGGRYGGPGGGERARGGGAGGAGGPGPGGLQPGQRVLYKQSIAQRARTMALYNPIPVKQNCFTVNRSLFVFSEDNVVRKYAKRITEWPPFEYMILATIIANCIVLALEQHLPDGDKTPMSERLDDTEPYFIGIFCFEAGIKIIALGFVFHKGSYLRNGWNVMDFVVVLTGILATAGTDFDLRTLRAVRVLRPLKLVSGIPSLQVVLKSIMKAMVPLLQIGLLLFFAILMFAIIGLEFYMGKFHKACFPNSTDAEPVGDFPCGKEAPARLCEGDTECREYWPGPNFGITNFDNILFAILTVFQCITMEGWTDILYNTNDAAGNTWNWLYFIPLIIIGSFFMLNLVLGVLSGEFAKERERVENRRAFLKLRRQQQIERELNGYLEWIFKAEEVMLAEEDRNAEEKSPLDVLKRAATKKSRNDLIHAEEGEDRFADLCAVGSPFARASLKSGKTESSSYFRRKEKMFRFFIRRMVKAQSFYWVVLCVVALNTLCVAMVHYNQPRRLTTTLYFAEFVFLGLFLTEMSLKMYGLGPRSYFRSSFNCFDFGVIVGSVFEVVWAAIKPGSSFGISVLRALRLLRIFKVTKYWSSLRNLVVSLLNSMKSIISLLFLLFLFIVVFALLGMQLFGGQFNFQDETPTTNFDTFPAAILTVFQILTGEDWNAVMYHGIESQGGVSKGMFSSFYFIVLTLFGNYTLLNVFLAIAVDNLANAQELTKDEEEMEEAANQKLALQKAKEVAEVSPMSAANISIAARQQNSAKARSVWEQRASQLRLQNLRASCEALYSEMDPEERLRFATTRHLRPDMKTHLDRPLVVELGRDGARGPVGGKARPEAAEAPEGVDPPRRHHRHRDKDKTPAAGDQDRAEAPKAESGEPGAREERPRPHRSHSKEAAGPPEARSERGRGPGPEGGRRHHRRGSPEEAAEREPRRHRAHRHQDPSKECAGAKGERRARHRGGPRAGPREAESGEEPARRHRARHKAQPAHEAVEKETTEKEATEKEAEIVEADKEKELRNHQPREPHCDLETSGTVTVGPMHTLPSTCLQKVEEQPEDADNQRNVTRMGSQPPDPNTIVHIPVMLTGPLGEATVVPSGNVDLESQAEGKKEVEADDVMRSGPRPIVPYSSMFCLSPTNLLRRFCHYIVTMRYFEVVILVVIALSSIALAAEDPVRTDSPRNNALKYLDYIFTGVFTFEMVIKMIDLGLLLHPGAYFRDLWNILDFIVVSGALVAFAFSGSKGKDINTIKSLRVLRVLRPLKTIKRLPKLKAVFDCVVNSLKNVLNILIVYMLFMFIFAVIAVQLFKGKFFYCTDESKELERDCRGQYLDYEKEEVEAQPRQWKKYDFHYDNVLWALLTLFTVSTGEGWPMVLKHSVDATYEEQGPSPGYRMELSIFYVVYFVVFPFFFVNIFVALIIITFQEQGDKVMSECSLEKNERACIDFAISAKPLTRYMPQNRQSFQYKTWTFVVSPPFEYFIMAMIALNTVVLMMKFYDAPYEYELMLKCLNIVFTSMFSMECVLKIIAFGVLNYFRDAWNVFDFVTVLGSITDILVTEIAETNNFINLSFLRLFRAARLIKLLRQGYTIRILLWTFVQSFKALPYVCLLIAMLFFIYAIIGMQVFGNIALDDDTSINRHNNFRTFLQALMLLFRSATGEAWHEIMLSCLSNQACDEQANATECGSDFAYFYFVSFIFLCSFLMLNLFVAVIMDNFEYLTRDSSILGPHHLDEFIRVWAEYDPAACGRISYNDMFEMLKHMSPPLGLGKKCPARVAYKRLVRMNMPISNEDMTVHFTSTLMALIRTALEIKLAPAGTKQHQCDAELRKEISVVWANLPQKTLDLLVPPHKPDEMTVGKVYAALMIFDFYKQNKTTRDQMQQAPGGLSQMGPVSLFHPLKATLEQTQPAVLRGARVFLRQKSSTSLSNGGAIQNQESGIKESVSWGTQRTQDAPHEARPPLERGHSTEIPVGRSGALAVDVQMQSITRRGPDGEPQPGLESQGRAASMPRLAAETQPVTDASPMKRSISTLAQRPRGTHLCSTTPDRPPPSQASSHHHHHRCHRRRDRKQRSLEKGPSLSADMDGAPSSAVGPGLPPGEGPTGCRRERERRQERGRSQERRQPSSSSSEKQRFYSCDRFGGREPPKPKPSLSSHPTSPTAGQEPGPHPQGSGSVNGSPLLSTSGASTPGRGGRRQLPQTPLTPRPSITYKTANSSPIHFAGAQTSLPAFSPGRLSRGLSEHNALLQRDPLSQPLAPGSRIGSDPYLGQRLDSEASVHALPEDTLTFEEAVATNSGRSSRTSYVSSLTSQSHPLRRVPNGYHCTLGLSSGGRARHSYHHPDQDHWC
T2 sequence (Q02410 whole entry): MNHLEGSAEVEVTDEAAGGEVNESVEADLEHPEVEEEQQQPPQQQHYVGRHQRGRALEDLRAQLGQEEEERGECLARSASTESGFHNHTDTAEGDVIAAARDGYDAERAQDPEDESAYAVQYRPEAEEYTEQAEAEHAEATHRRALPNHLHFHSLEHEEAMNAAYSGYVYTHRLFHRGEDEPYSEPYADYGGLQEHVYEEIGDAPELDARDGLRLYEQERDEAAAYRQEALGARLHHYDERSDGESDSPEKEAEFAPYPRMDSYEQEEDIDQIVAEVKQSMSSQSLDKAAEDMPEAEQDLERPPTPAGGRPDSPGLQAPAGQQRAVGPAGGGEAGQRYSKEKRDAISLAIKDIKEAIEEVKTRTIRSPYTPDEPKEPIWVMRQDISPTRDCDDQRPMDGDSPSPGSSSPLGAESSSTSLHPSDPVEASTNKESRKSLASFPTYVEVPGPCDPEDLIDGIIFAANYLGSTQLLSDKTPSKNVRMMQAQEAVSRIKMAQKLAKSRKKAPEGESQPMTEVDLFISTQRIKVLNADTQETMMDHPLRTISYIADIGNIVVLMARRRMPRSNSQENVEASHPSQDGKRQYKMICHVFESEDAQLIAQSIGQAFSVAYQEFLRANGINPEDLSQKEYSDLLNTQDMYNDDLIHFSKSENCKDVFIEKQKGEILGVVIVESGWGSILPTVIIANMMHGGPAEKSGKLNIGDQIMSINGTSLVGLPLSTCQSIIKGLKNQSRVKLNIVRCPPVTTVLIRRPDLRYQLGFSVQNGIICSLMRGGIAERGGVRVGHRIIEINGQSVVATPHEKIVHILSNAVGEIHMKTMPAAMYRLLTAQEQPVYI

[5] = target: Glucose-6-phosphate 1-dehydrogenase (Homo sapiens, UniProt P11413); assay: human G6PD enzyme inhibitors, dose response, selectivity assay for P. falciparum G6PD inhibitor project, biochemical, fluorescence (AID 504792); type: functional
[6] = target: T2, Voltage-gated N-type calcium channel alpha-1B subunit/Amyloid beta A4 precursor protein-binding family A member 1; type: protein assay; remark: listed apart in the source
[7] = target: T3, Probable nicotinate-nucleotide adenylyltransferase (Staphylococcus aureus (strain N315), UniProt P65502); type: functional, Staphylococcus aureus subsp. aureus N315;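 as to IC50 Mean: confirmatory dose-response retesting of NadD inhibitor hits first found in an ultra-high-throughput screen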
[8] = target: Eukaryotic translation initiation factor 4E (Mus musculus, UniProt P63073); assay: eIF4E–eIF4G protein interaction inhibitors, dose response, biochemical, TR-FRET (AID 855); type: functional;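 also: potency for disrupting eIF4E binding to eIF4GI seen as loss of FRET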
Sequence of Eukaryotic translation initiation factor 4E (P63073 whole entry): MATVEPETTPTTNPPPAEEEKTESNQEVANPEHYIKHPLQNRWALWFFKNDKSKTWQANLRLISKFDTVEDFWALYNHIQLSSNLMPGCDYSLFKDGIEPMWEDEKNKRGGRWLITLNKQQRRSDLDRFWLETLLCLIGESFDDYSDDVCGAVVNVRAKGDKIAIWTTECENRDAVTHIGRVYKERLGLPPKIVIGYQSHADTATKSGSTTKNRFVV

[9] = target: T3, Probable nicotinate-nucleotide adenylyltransferase; type: functional, Staphylococcus aureus subsp. aureus N315; settings: read-out: IC50_Mean
Cytochrome P450 3A4 = Cytochrome P450 3A4 (Homo sapiens, UniProt P08684); settings: Potency;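 also: confirmatory qHTS run detecting inhibitors and substrates of CYP3A4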
[10] = target: Aryl hydrocarbon receptor (Homo sapiens, UniProt P35869); settings: Potency;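 also: confirmatory quantitative high-throughput screen measuring activation of the AhR signaling pathway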
[11] = target: Melanin-concentrating hormone receptor 1 (Homo sapiens, UniProt Q99705); assay: Late-stage fluorescence-based counterscreen for antagonists of the G-protein coupled receptor 7 (GPR7): cell-based dose response assay to identify antagonists of the melanin-concentrating hormone receptor 1 (MCHR1) Set 5.; type: functional
Sequence of Melanin-concentrating hormone receptor 1 (Q99705 whole entry): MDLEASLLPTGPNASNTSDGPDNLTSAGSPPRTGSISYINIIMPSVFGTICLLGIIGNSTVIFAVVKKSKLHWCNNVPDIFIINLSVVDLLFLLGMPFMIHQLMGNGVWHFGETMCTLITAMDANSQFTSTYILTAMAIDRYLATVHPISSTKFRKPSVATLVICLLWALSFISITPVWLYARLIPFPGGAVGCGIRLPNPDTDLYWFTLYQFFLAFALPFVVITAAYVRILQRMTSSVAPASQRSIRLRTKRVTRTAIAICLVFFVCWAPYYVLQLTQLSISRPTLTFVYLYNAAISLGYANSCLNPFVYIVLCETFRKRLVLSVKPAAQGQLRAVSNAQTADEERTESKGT

[12] = target: Neuropeptides B/W receptor type 1 (Homo sapiens, UniProt P48145); assay: GPR7 antagonist potency, late-stage follow-up, cell-based, fluorescence, dose response, set 5 (AID 588566); type: functional
Sequence of Neuropeptides B/W receptor type 1 (P48145 whole entry): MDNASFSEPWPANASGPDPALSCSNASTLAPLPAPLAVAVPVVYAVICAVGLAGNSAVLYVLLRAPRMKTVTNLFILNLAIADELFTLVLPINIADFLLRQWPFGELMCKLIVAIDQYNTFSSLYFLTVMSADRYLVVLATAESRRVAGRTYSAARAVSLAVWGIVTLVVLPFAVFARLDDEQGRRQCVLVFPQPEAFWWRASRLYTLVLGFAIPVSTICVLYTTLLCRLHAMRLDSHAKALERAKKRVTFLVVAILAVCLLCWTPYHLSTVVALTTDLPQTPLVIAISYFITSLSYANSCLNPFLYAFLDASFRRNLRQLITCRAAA

[13] = target: T4, Apoptotic protease-activating factor 1 (Homo sapiens, UniProt O14727); assay: SAR analysis of small molecule Activators of Apaf-1 in a Fluorescent assay.; type: functional; settings: read-out: EC50_Mean;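 also: caspase-3 cleavage of fluorogenic Rh110 DEVD substrate downstream of apoptosome activation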
T4 sequence (O14727 whole entry): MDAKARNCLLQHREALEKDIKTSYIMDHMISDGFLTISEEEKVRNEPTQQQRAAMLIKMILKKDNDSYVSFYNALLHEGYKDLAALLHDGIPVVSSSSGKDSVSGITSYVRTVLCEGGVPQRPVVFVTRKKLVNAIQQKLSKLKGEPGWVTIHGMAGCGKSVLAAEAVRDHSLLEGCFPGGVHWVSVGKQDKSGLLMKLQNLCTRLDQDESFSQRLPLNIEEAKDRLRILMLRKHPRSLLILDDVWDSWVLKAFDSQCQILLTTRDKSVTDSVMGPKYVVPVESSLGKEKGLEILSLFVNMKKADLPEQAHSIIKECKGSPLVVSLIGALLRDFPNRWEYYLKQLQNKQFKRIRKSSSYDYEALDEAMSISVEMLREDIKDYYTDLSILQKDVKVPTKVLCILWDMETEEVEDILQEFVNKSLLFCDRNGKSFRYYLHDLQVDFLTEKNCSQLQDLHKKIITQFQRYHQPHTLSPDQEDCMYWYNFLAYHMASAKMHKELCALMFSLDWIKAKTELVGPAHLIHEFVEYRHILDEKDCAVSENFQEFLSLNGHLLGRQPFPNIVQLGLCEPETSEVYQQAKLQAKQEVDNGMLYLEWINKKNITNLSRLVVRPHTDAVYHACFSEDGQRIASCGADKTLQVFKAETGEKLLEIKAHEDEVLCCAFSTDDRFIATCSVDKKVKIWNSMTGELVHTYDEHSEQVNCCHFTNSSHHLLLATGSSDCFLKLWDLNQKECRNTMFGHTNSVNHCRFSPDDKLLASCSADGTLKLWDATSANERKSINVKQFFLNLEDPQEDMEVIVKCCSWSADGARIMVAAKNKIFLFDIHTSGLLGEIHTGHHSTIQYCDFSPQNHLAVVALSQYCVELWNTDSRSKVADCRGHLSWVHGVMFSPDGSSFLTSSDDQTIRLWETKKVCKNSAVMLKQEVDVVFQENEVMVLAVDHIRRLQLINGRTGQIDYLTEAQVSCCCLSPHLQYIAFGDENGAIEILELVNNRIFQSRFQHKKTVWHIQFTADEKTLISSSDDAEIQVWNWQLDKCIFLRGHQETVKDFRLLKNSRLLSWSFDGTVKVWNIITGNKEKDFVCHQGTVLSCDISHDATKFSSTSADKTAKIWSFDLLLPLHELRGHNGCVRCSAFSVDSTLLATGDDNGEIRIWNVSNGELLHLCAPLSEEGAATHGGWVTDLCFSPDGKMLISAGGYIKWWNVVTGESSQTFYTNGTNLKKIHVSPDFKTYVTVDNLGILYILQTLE

[14] = target: Cyclin-dependent kinase 8 (Homo sapiens, UniProt P49336); assay: Navigating the Kinome. Panel member name: CDK8; type: functional
[15] = target: Dual specificity protein kinase CLK4 (Homo sapiens, UniProt Q9HAZ1); type: functional
[16] = ARNT/TACC3 interaction disruptors, potency, confirmation, biochemical, AlphaScreen, cherry-picked samples (AID 651703); type: functional, Homo sapiens;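 also: His-tagged ARNT PAS-B domain paired with GST-TACC3 E629A dimer coactivator fragment; potency of inhibitors that break up the complex and lower AlphaScreen signal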
Insulin-degrading enzyme = target: T5, Insulin-degrading enzyme (Homo sapiens, UniProt P14735); assay: Dose Response: Fluorescence polarization-based cell-based high throughput dose response assay for inhibitors of insulin-degrading enzyme (IDE). [Related pubchem assays: 434962 (Primary screen (IDE inhibitors in singlicate)), 449730 (Counterscreen (Cytotoxicity in triplicate)), 435028 (Confirmation (IDE inhibitors in triplicate)), 434984 (Summary …; type: functional
T5 sequence (P14735 whole entry): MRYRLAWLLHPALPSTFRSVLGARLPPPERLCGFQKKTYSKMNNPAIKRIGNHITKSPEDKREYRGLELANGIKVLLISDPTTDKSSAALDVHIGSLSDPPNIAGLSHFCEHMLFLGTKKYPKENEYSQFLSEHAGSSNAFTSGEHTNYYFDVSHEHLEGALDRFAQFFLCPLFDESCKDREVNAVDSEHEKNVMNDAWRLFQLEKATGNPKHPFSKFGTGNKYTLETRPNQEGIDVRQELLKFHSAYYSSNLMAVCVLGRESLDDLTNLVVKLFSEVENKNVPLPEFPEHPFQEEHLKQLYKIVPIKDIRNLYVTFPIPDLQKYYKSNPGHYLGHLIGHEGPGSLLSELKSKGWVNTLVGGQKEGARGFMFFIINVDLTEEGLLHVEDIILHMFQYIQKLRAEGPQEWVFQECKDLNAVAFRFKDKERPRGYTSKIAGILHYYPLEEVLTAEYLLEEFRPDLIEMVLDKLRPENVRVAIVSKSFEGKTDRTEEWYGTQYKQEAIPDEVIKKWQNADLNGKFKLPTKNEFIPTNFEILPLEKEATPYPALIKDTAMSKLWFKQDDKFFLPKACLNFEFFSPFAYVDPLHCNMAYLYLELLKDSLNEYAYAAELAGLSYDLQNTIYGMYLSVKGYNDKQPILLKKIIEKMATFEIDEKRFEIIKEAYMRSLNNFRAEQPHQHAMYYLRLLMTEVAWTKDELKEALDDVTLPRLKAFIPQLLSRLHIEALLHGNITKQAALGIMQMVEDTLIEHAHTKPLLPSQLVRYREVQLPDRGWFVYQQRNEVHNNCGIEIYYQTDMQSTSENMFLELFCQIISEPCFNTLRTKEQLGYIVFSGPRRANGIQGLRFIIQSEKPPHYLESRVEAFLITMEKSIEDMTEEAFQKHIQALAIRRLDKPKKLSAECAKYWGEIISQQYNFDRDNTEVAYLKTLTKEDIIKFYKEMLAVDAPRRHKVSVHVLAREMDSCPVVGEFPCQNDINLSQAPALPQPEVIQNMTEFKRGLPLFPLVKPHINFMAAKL

[17] = target: DNA repair and recombination protein RAD54-like (Homo sapiens, UniProt Q92698); assay: inhibitors of human RAD54 branch migration, confirmation, biochemical, fluorescence, cherry-picked samples, dose series (AID 651657); type: functional
Sequence of DNA repair and recombination protein RAD54-like (Q92698 whole entry): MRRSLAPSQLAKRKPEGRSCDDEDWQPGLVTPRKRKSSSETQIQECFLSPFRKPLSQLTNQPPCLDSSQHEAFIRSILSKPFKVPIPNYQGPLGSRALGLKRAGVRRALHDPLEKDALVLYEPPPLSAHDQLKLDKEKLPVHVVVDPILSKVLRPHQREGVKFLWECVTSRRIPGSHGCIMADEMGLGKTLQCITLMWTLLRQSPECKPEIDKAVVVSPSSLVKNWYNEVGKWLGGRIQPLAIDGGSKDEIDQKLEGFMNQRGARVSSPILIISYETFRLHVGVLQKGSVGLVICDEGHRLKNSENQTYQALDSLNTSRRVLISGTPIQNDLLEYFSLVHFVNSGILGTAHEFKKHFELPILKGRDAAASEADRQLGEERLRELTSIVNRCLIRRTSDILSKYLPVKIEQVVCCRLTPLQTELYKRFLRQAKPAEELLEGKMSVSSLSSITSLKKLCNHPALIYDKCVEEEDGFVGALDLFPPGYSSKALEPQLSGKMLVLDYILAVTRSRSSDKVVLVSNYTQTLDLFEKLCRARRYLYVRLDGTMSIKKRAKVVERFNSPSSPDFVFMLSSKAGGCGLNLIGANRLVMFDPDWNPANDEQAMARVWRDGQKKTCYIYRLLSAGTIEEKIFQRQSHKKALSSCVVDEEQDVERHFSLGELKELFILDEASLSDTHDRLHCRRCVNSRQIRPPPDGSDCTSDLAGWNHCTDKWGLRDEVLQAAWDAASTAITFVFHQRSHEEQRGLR

[18] = target: T6, Methionyl-tRNA synthetase, putative (Trypanosoma brucei brucei, UniProt Q38C91); type: functional, Trypanosoma brucei brucei strain 927/4 GUTat10.1
T6 sequence (Q38C91 whole entry): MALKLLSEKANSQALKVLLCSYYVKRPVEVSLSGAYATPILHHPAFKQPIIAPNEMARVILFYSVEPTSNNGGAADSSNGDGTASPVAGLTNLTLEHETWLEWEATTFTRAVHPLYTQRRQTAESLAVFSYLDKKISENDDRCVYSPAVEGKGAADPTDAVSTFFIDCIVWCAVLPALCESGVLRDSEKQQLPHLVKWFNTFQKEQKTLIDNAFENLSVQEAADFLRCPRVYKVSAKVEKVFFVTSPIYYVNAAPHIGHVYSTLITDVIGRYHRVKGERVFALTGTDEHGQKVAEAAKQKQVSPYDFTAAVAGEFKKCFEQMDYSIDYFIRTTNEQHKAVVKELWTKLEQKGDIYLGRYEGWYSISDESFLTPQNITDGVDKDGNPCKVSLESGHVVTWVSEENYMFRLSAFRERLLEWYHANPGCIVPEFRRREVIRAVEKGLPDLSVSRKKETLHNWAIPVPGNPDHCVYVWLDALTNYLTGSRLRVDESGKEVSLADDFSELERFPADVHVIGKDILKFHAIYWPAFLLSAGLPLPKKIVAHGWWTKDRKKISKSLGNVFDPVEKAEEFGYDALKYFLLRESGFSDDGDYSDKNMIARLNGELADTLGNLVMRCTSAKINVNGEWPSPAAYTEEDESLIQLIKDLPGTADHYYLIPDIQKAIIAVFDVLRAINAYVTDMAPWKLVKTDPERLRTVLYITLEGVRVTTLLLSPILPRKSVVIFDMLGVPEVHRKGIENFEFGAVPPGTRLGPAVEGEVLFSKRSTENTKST

[19] = Counterscreen for IDE inhibitors: Luminescence-based cell-based high throughput dose response assay to identify compounds that are cytotoxic to HEK cells. [Related pubchem assays: 434962 (Primary screen (IDE inhibitors in singlicate)), 449730 (Counterscreen (Cytotoxicity in triplicate)), 435028 (Confirmation (IDE inhibitors in triplicate)) …; type: functional; settings: HEK293
[20] = Counterscreen for inhibitors of Trypanosoma brucei methionyl tRNA synthetase (MetRS): Luminescence-based cell-based high throughput dose response assay to identify compounds that are cytotoxic to Jurkat human T lymphocyte cells.; type: functional
[21] = target: T6, Methionyl-tRNA synthetase, putative; type: functional, Trypanosoma brucei brucei strain 927/4 GUTat10.1; remark: listed apart in the source

Structure (SMILES): CC1=C(C)C[S+]([O-])N(S(=O)(=O)c2ccc(Cl)cc2)C1 (configuration not stated)
- IC50 [1]: 71.9 µM (active)
- IC50 [2]: > 93.1 µM (not active)
- IC50 [3]: 5.57 µM (active)
- IC50 (Large T antigen): 18.1 µM (active)
- IC50 (Beta Lactamase): 25.8 µM (inactive)
- IC50 [4]: 30.9 µM (active)
- IC50 [5]: > 80 µM (inactive)
- IC50 [6]: > 50 µM (inactive)

Structure (SMILES): COc1cccc2sc(N)nc12
- AC50 (Cytochrome P450 3A4): 15.8 µM (inconclusive)
- AC50 [10]: 50.1 µM (inconclusive)

Structure (SMILES): CC(Nc1ccccc1)C(=O)O (configuration not stated)
- EC50 [13]: > 100 µM (inactive)

Structure (SMILES): Cn1c(-c2ccccc2)cnc1NC(=O)c1cc(-c2ccccc2)on1
- AC50 [16]: 117 µM (active)

Structure (SMILES): Clc1ccc2[nH]c3c(NCCCN4CCOCC4)ncnc3c2c1
- IC50 (Insulin-degrading enzyme): 10.9 µM (not active)
- AC50 [17]: 33.7 µM (active)
- IC50 [18]: 9.1 µM (active)
- IC50 [19]: 14.3 µM (not active)
- IC50 [20]: 59.8 µM (inactive)
- IC50 [21]: 11.3 µM (inactive)

The remaining lines, values ahead:

- IC50 [7]: 0.461 µM (active)
- IC50 [8]: > 64 µM (inactive)
- IC50 [9]: 0.808 µM (active)
Structure (SMILES): Cc1ccc(-c2cc(-c3ccc(Cl)cc3)c(C#N)c(N)n2)o1

- IC50 [11]: 9.7 µM (active)
- IC50 [12]: 0.782 µM (active)
Structure (SMILES): N#Cc1ccccc1C(C#N)c1c(Cl)cnn(Cc2cccc3ccccc23)c1=O (configuration not stated)

- Ki [14]: 2.51 µM (active)
- Ki [15]: 2 µM (active)
Structure (SMILES): COc1ccc(CCN(C)C(=O)CCc2ccc(Cl)c(Cl)c2)cc1OC

- IC50 [11]: 18.6 µM (inactive)
- IC50 [12]: 1.01 µM (active)
Structure (SMILES): O=c1c(Oc2ccc3cc[nH]c3c2)c(Cl)cnn1Cc1cccc2ccccc12
